{"source": "patent US8618095B2", "about": "(Rigel Pharmaceuticals, Inc., priority 2010, dated 2013)", "note": "Where a name gives a salt, the structure may show the parent alone."}
{"tested_on": "Human mast cells (CHMC)", "assay": "LD Tryptase release assay in CHMC (mast cell activation induced by FcγR cross-linking)", "type": "cell-based", "details": "Homo sapiens, Mast cell, anti-IgG stimulation, activity of tryptase released upon degranulation", "procedure": "(§1) Compounds were assayed for inhibition of mast cell activation induced by FcγR cross-linking by measuring the activity of tryptase released upon degranulation as follows:\n(§2) Human mast cells were cultured and differentiated from […] progenitor cell as described in U.S. Patent Publication No. 2005-234049, incorporated herein by reference. For example, 65 μL of various concentrations of the compound to be assayed were prepared in MT (137 mM NaCl, 2.7 mM KCl, 1.8 mM CaCl2, 1.0 mM MgCl2, 5.6 mM Glucose, 20 mM Hepes (pH 7.4), 0.1% Bovine Serum Albumin, (Sigma A4503)) containing 2% MeOH and 1% DMSO, or control buffer were added to duplicate 96-well V-bottom plates. Pelleted and re-suspended (in warm MT) CHMC cells (65 μL) were added to each 96-well plate, mixed and incubated for 1 hour at 37° C. 25 μl of 6× anti-IgG Rabbit anti-human IgG, Affinity purified (Bethyl Laboratories Cat No. A80-105A3) final concentration 1 μg/mL, was added to the test wells. MT (25 μL) was added to control wells. After a 60-minute incubation at 37° C., cells and cell debris were pelleted by centrifugation at 1000 rpm for 10 min and tryptase and leukotriene C4 levels were measured.\n(§3) To measure tryptase levels, 25 μL of supernatant from each well was transferred to a fresh 96-well black bottom plate, to which 100 μL of fresh tryptase substrate solution [(Z-Ala-Lys-Arg-AMC2TFA; Enzyme Systems Products, #AMC-246)] 1:2000 in tryptase assay buffer [0.1 M Hepes (pH 7.5), 10% w/v Glycerol, 10 μM Heparin (Sigma H-4898) 0.01% NaN3] was added. After 30 minute incubation at room temperature, the optical density of the plates is measured at 355 nm/460 nm on a spectrophotometric plate reader. Table 1 provides the IC50 values.\n(§4) Compounds of the disclosure were assayed for their ability to inhibit mast cell activation induced by FcγR cross-linking by measuring the activity of tryptase released upon degranulation. The IC50 values for the LD Tryptase assay are presented in Table 2, in which “0” is >100 μM; “A” is 1-100 μM; “B” is 0.5-1 μM; “C” is 0.1-0.5 μM; and “D” is less than 0.1 μM: […]", "units": {"IC50": "nM"}}
{"smiles": "CCN(CC)C1CCN(c2ccc(Nc3ncc(F)c(Nc4ccc5c(n4)NC(=O)C(C)(C)O5)n3)cn2)C1", "note": "(stereo not drawn) [Compound 66, N4-(2,2-dimethyl-3,4-dihydro-3-oxo-2H-pyrido[3,2-b][1,4]oxazin-6-yl)-5-fluoro-N2-[6-(3-(diethylamino)pyrrolidin-1-yl)pyridin-3-yl]-2,4-pyrimidinediamine]", "IC50": "500 to 1000"}
{"smiles": "O=C1COc2ccc(Nc3nc(Nc4ccc(N5CCO[C@@H](CO)C5)cc4)ncc3F)nc2N1", "note": "[Compound 127, N4-(3,4-dihydro-3-oxo-2H-pyrido[3,2-b][1,4]oxazin-6-yl)-5-fluoro-N2-[4-((2-hydroxymethyl)morpholino)phenyl]-2,4-pyrimidinediamine]", "IC50": "< 100"}
{"smiles": "CC1(C)Oc2ccc(Nc3nc(Nc4ccc(N5C[C@@H]6C[C@H]5CO6)nc4)ncc3F)nc2NC1=O", "note": "[Compound 92, N4-(2,2-dimethyl-3,4-dihydro-3-oxo-2H-pyrido[3,2-b][1,4]oxazin-6-yl)-5-fluoro-N2-[6-((1S,4S)-5-oxa-2-aza-bicyclo[2.2.1]heptan-2-yl)pyridin-3-yl]-2,4-pyrimidinediamine]", "IC50": "< 100"}
{"smiles": "CC1(C)Oc2ccc(Nc3nc(Nc4ccc(-c5cccnc5)nc4)ncc3F)nc2NC1=O", "note": "[Compound 75, N4-(2,2-dimethyl-3,4-dihydro-3-oxo-2H-pyrido[3,2-b][1,4]oxazin-6-yl)-5-fluoro-N2-[2,3′-bipyridin-5-yl]-2,4-pyrimidinediamine]", "IC50": "1000 to 100000"}
{"smiles": "O=C1Nc2nc(Nc3nc(Nc4ccc(N5CCOCC5)cc4)ncc3F)ccc2OC12CCC2", "note": "[Compound 123, 5-Fluoro-N2-(4-morpholinophenyl)-N4-(3′-oxo-3′,4′-dihydrospiro[cyclobutane-1,2′-pyrido[3,2-b][1,4]oxazine]-6-yl)-2,4-pyrimidinediamine]", "IC50": "100 to 500"}
{"smiles": "CC1(C)Oc2ccc(Nc3nc(Nc4ccc(N5CC[C@@H](O)C5)nc4)ncc3F)nc2NC1=O", "note": "[Compound 64, N4-(2,2-dimethyl-3,4-dihydro-3-oxo-2H-pyrido[3,2-b][1,4]oxazin-6-yl)-5-fluoro-N2-[6-((3R)-3-hydroxypyrrolidin-1-yl)pyridin-3-yl]-2,4-pyrimidinediamine]", "IC50": "100 to 500"}
{"smiles": "CC1(C)Oc2ccc(Nc3nc(Nc4ccc(C5CCOCC5)cc4)ncc3F)nc2NC1=O", "note": "[Compound 47, N4-(2,2-dimethyl-3,4-dihydro-3-oxo-2H-pyrido[3,2-b][1,4]oxazin-6-yl)-5-fluoro-N2-[4-tetrahydropyranophenyl]-2,4-pyrimidinediamine]", "IC50": "1000 to 100000"}
{"smiles": "CC1(C)Oc2ccc(Nc3nc(Nc4cc(F)c(N5CCOCC5)c(F)c4)ncc3F)nc2NC1=O", "note": "[Compound 31, N4-(2,2-dimethyl-3,4-dihydro-3-oxo-2H-pyrido[3,2-b][1,4]oxazin-6-yl)-5-fluoro-N2-[3,5-difluoro-4-morpholinophenyl]-2,4-pyrimidinediamine]", "IC50": "1000 to 100000"}
{"smiles": "CCOC[C@H]1CN(c2ccc(Nc3ncc(F)c(Nc4ccc5c(n4)NC(=O)C(C)(C)O5)n3)cn2)CCO1", "note": "[Compound 103, N4-(2,2-dimethyl-3,4-dihydro-3-oxo-2H-pyrido[3,2-b][1,4]oxazin-6-yl)-N2-[6-(((2R)-2-ethoxymethyl)morpholino)pyridin-3-yl]-5-fluoro-2,4-pyrimidinediamine]", "IC50": "100 to 500"}
{"smiles": "CC1(C)Oc2ccc(Nc3nc(Nc4ccc(N5CC[C@@H](F)C5)nc4)ncc3F)nc2NC1=O", "note": "[Compound 136, (R)—N4-(2,2-dimethyl-3,4-dihydro-3-oxo-2H-pyrido[3,2-b][1,4]oxazin-6-yl)-5-fluoro-N2-[6-(3-fluoropyrrolidin-1-yl)pyrid-3-yl]-2,4-pyrimidinediamine]", "IC50": "< 100"}
{"smiles": "C[C@H]1CN(c2ccc(Nc3ncc(F)c(Nc4ccc5c(n4)NC(=O)C(C)(C)O5)n3)cc2)CCO1", "note": "[Compound 79, N4-(2,2-dimethyl-3,4-dihydro-3-oxo-2H-pyrido[3,2-b][1,4]oxazin-6-yl)-5-fluoro-N2-1-2,4-pyrimidinediamine]", "IC50": "100 to 500"}
{"smiles": "CC1(C)Oc2ccc(Nc3nc(Nc4ccc(NC5CCOCC5)nc4)ncc3F)nc2NC1=O", "note": "[Compound 134]", "IC50": "< 100"}
{"smiles": "CC1(C)Oc2ccc(Nc3nc(Nc4ccc(N5CCC(N6CCOCC6)CC5)nc4)ncc3F)nc2NC1=O", "note": "[Compound 60, N4-(2,2-dimethyl-3,4-dihydro-3-oxo-2H-pyrido[3,2-b][1,4]oxazin-6-yl)-5-fluoro-N2-[6-(4-morpholinopiperidin-1-yl)pyridin-3-yl]-2,4-pyrimidinediamine]", "IC50": "100 to 500"}
{"smiles": "CC(C)OC1CCN(c2ccc(Nc3ncc(F)c(Nc4ccc5c(n4)NC(=O)C(C)(C)O5)n3)cc2)CC1", "note": "[Compound 86, N4-(2,2-dimethyl-3,4-dihydro-3-oxo-2H-pyrido[3,2-b][1,4]oxazin-6-yl)-5-fluoro-N2-[4-(4-isopropoxypiperidin-1-yl)phenyl]-2,4-pyrimidinediamine]", "IC50": "1000 to 100000"}
{"smiles": "CN(C[C@@H]1CCCO1)c1ccc(Nc2ncc(F)c(Nc3ccc4c(n3)NC(=O)C(C)(C)O4)n2)cn1", "note": "[Compound 109]", "IC50": "100 to 500"}
{"smiles": "CCOC[C@H]1CN(c2ccc(Nc3ncc(F)c(Nc4ccc5c(n4)NC(=O)CO5)n3)cn2)CCO1", "note": "[Compound 102, N4-(3,4-dihydro-3-oxo-2H-pyrido[3,2-b][1,4]oxazin-6-yl)-N2-[6-(((2R)-2-ethoxymethyl)morpholino)pyridin-3-yl]-5-fluoro-2,4-pyrimidinediamine]", "IC50": "100 to 500"}
{"smiles": "CCOCC1COCCN1c1ccc(Nc2ncc(F)c(Nc3ccc4c(n3)NC(=O)C(C)(C)O4)n2)cn1", "note": "(stereo not drawn) [Compound 59, N4-(2,2-dimethyl-3,4-dihydro-3-oxo-2H-pyrido[3,2-b][1,4]oxazin-6-yl)-5-fluoro-N2-[6-(3-(ethoxymethyl)morpholino)pyridin-3-yl]-2,4-pyrimidinediamine]", "IC50": "100 to 500"}
{"smiles": "C[C@@H]1COCCN1c1ccc(Nc2ncc(F)c(Nc3ccc4c(n3)NC(=O)C(C)(C)O4)n2)cc1", "note": "[Compound 81]", "IC50": "100 to 500"}
{"smiles": "O=C1COc2ccc(Nc3nc(Nc4ccc(N5CCCOCC5)cc4)ncc3F)nc2N1", "note": "[Compound 44, N4-(3,4-dihydro-3-oxo-2H-pyrido[3,2-b][1,4]oxazin-6-yl)-5-fluoro-N2-[4-homomorpholinophenyl]-2,4-pyrimidinediamine]", "IC50": "100 to 500"}
{"smiles": "CC(C)[C@@H]1COC(=O)N1c1ccc(Nc2ncc(F)c(Nc3ccc4c(n3)NC(=O)C(C)(C)O4)n2)cn1", "note": "[Compound 73, N4-(2,2-dimethyl-3,4-dihydro-3-oxo-2H-pyrido[3,2-b][1,4]oxazin-6-yl)-5-fluoro-N2-[6-((4R)-4-isopropyl-2-oxooxazolidin-3-yl)pyridin-3-yl]-2,4-pyrimidinediamine]", "IC50": "100 to 500"}
{"smiles": "CC1(C)Oc2ccc(Nc3nc(Nc4ccc(N5CCC(N6CCOCC6)C5)nc4)ncc3F)nc2NC1=O", "note": "(stereo not drawn) [Compound 67, N4-(2,2-dimethyl-3,4-dihydro-3-oxo-2H-pyrido[3,2-b][1,4]oxazin-6-yl)-5-fluoro-N2-[6-(3-morpholinopyrrolidin-1-yl)pyridin-3-yl]-2,4-pyrimidinediamine]", "IC50": "100 to 500"}
{"smiles": "CN(C)C[C@@H]1CN(c2ccc(Nc3ncc(F)c(Nc4ccc5c(n4)NC(=O)C(C)(C)O5)n3)cc2)CCO1", "note": "[Compound 122]", "IC50": "100 to 500"}
{"smiles": "COC1CCN(c2ccc(Nc3ncc(F)c(Nc4ccc5c(n4)NC(=O)C(C)(C)O5)n3)cn2)CC1", "note": "[Compound 53, N4-(2,2-dimethyl-3,4-dihydro-3-oxo-2H-pyrido[3,2-b][1,4]oxazin-6-yl)-5-fluoro-N2-[6-(4-methoxypiperidin-1-yl)pyridin-3-yl]-2,4-pyrimidinediamine]", "IC50": "100 to 500"}
{"smiles": "O=C1COc2ccc(Nc3nc(Nc4cnc(N5CCOCC5)c(F)c4)ncc3F)nc2N1", "note": "[Compound 16, N4-(3,4-dihydro-3-oxo-2H-pyrido[3,2-b][1,4]oxazin-6-yl)-5-fluoro-N2-[5-fluoro-6-morpholinopyridin-3-yl]-2,4-pyrimidinediamine]", "IC50": "100 to 500"}
{"smiles": "CC(C)Oc1cc(Nc2ncc(F)c(Nc3ccc4c(n3)NC(=O)C(C)(C)O4)n2)ccc1N1CCOCC1", "note": "[Compound 45, N4-(2,2-dimethyl-3,4-dihydro-3-oxo-2H-pyrido[3,2-b][1,4]oxazin-6-yl)-5-fluoro-N2-[3-(2-propoxy)-4-morpholinophenyl]-2,4-pyrimidinediamine]", "IC50": "1000 to 100000"}
{"smiles": "CC1(C)CN(c2ccc(Nc3ncc(F)c(Nc4ccc5c(n4)NC(=O)CO5)n3)cc2)CCO1", "note": "[Compound 115, N4-(3,4-dihydro-3-oxo-2H-pyrido[3,2-b][1,4]oxazin-6-yl)-N2-[4-(2,2-dimethylmorpholino)phenyl]-5-fluoro-2,4-pyrimidinediamine]", "IC50": "< 100"}
{"tested_on": "Human mast cells (CHMC)", "assay": "LD Tryptase release assay in CHMC (mast cell activation induced by FcγR cross-linking)", "type": "cell-based", "details": "anti-IgG stimulation, activity of tryptase released upon degranulation", "procedure": "as §1, §2, §3, §4", "units": {"IC50": "nM"}}
{"smiles": "CC1(C)Oc2ccc(Nc3nc(Nc4ccc(N5CCOCC5)nc4)ncc3F)nc2NC1=O", "note": "[Compound 141, N4-(2,2-dimethyl-3,4-dihydro-3-oxo-2H-pyrido[3,2-b][1,4]oxazin-6-yl)-5-fluoro-N2-[6-morpholinopyridin-3-yl]-2,4-pyrimidinediamine benzenesulfonic acid salt]", "IC50": "100 to 500"}
